The test system of test [1] is Rattus norvegicus. Kind of test: Antiallergic activity in Sprague-Dawley rat assessed as inhibition of ovalbumin-induced wheal formation at 25 mg/kg, ip administered 5 mins prior to ovalbumin challenge measured after 30 mins by passive cutaneous anaphylaxis assay relative to control. It counts as functional. Particulars: route intraperitoneal; for inhibition in vivo at 25 mg/kg: Rattus norvegicus, Sprague-Dawley, ip.

Test [2] can be described thus: Antiallergic activity in antiovalbumin serum sensitized guinea pig lung slices assessed as inhibition of ovalbumin-induced histamine release at 100 uM preincubated for 5 mins followed by ovalbumin challenge measured after 15 mins by fluorometric analysis relative to control. Type of test: functional, Cavia porcellus. Particulars: for inhibition at 100 µM: Cavia porcellus, Lung.

The next test is filed under the species Canis lupus familiaris. Kind of test: Inhibition of Mongrel dog ventricular muscle cAMP phosphodiesterase using adenosine 3',5' monophosphate as substrate at 100 uM by scintillation counting analysis in presence of [8-14C]adenosine relative to control.
Test [3] has as its system Rattus norvegicus. Nature of the test: Antiallergic activity in Sprague-Dawley rat assessed as inhibition of serotonin-induced wheal formation at 25 mg/kg, ip administered 5 mins prior to serotonin challenge measured 5 mins post serotonin challenge relative to control. It counts as functional.
In test [4] the test system is Rattus norvegicus. Nature of the test: Antiallergic activity in ip dosed Sprague-Dawley rat assessed as inhibition of ovalbumin-induced wheal formation administered 5 mins prior to ovalbumin challenge measured after 30 mins by passive cutaneous anaphylaxis assay. It counts as functional.
Test [5] concerns Rattus norvegicus. Kind of test: Antiallergic activity in Sprague-Dawley rat assessed as inhibition of ovalbumin-induced wheal formation at 25 mg/kg, po administered 10 mins prior to ovalbumin challenge measured after 30 mins by passive cutaneous anaphylaxis assay relative to control. It counts as functional.
The subject of test [6] is Rattus norvegicus. Nature of the test: Antiallergic activity in Sprague-Dawley rat assessed as inhibition of ovalbumin-induced wheal formation at 6 mg/kg, ip administered 5 mins prior to ovalbumin challenge measured after 30 mins by passive cutaneous anaphylaxis assay relative to control. Conditions: route intraperitoneal. Type of test: functional.
Test [7] is described as follows: Antiallergic activity in antiovalbumin serum sensitized guinea pig lung slices assessed as inhibition of ovalbumin-induced histamine release at 0.3 uM preincubated for 5 mins followed by ovalbumin challenge measured after 15 mins by fluorometric analysis relative to control. Type of test: functional. Particulars: Cavia porcellus.
The nature of test [8]: Antiallergic activity in antiovalbumin serum sensitized guinea pig lung slices assessed as inhibition of ovalbumin-induced histamine release at 1.5 mM preincubated for 5 mins followed by ovalbumin challenge measured after 15 mins by fluorometric analysis relative to control. Type of test: functional. Conditions: Cavia porcellus.

Where “and” joins values, the source holds several entries; their conditions need not be identical. Equal entries are not always repeated. Calls of active or inactive are those of the source. No cut-off for these calls is given here.

Take `COc1cc2c(cc1OC)C(c1ccccc1)=NCC2` [listing 1 of 2 here]: the “inhibition (INH)” value in the test with Rattus norvegicus [1] is on record as 31%; in test [2], 91%.
For the compound `c1ccc2c(c1)CCNC2`, the inhibition in vivo at 25 mg/kg in the test on Rattus norvegicus [1] stood at 18%. Moreover, the inhibition in the test listed under Canis lupus familiaris turned out to be 0%. In test [2], the inhibition at 100 µM was 31%.
In the case of `COc1cc2c(cc1OCc1ccccc1)C(c1ccccc1)NCC2` (racemic), the inhibition in vivo at 25 mg/kg in the test on Rattus norvegicus [1] and in the test with Rattus norvegicus [3] (route intraperitoneal) was 29% each time. In addition, the inhibition in the test listed under Canis lupus familiaris worked out at 34%. Besides, in test [2], the inhibition at 100 µM worked out at 56%.
Consider `COc1cc2c(cc1OC)C(Cc1cc(OCc3ccccc3)c(OC)cc1Br)NCC2` (racemic), for which the inhibition in vivo at 25 mg/kg in the test with Rattus norvegicus [1] came to 0%. Besides, in the test listed under Canis lupus familiaris, the inhibition came out at 55%. In test [2], the inhibition at 100 µM came to 33%.
On to `COc1cc2c(cc1OC)C(c1ccccc1)NCC2.Cl` (stereo unspecified), for which the inhibition in vivo at 25 mg/kg in the test on Rattus norvegicus [1] was 52%; with Rattus norvegicus [5], 7%. The inhibition in the test listed under Canis lupus familiaris is 46%. Further, the inhibition at 100 µM in test [2] amounted to 49%. The median effective dose (ED50) with Rattus norvegicus [4] was found to be 34 mg/kg. Also, the inhibition entry in the test with Rattus norvegicus [3] was “inactive”.
As to `COc1cc2c(cc1OC)C(C1CCCCC1)=NCC2`, the inhibition in vivo at 25 mg/kg in the test with Rattus norvegicus [1] turned out to be 18%. For the same compound, the inhibition in the test filed under Canis lupus familiaris was 70%.
As for `O=C(O)c1cc(=O)c2c(OCC(O)COc3cccc4oc(C(=O)O)cc(=O)c34)cccc2o1` [CROMOLYN SODIUM], the inhibition in vivo at 6 mg/kg in the test with Rattus norvegicus [6] is 52%.
With `CC(C)NCC(O)c1ccc(O)c(O)c1` (stereo unspecified) [ISOPROTERENOL], the inhibition at 0.3 µM in test [7] was 49%.
Consider `COc1cc2c(cc1O)C(c1ccccc1)=NCC2`, for which the inhibition in vivo at 25 mg/kg in the test on Rattus norvegicus [1] is 46%. In addition, the inhibition in the test filed under Canis lupus familiaris came to 83%. Also, the inhibition at 100 µM in test [2] came to 36%.
As to `COc1cc2c(cc1OC)C(c1ccc(C(C)(C)C)cc1)NCC2.Cl` (stereo unspecified), the results for the inhibition in vivo at 25 mg/kg with Rattus norvegicus [1] and in the test on Rattus norvegicus [5] were 37% and 9%, respectively. For the same compound, the inhibition in the test listed under Canis lupus familiaris stood at 71%. Besides, the inhibition at 100 µM in [2] was determined as 13%. The median effective dose (ED50) in the test on Rattus norvegicus [4] turned out to be 24 mg/kg. The inhibition result with Rattus norvegicus [3] is “inactive”.
In the case of `COc1cc2c(cc1OC)C(c1ccccc1OC)=NCC2`, the inhibition in vivo at 25 mg/kg in the test with Rattus norvegicus [1] stood at 36%. The inhibition in the test filed under Canis lupus familiaris stood at 56%.
Turning to `Cn1c(=O)c2[nH]cnc2n(C)c1=O`, in the test listed under Canis lupus familiaris, the inhibition was determined as 51%.
As to `c1ccc(C2=NCCc3ccccc32)cc1`, the inhibition in vivo at 25 mg/kg with Rattus norvegicus [1] was found to be 0%. Besides, the inhibition in the test listed under Canis lupus familiaris was found to be 42%. Besides, the inhibition at 100 µM in test [2] is 17%.
Taken in the same sequence, the figures for `CCOC(=O)C(=O)N1CCc2cc(OC)c(OCc3ccccc3)cc2C1c1ccccc1` (stereo unspecified) were 18%, 0% and 0%.
For `COc1cc2c(cc1OC)C(c1cccc(C(F)(F)F)c1)=NCC2` the same measures were 35%, 95% and 16%.
Turning to `COc1ccc2c(c1)C(c1ccccc1)NCC2.Cl` (stereo unspecified), the inhibition in vivo at 25 mg/kg with Rattus norvegicus [1] amounted to 41%; in the test with Rattus norvegicus [5], 40%. In addition, the inhibition in the test filed under Canis lupus familiaris is 12%. In addition, the inhibition at 100 µM in test [2] is 60%. Further, the ED50 with Rattus norvegicus [4] was found to be 24 mg/kg. In addition, the inhibition result with Rattus norvegicus [3] is “inactive”.
As to `COc1cc2c(cc1OC)C(c1ccccc1OC)NCC2` (stereo unspecified), in the test on Rattus norvegicus [1], the inhibition in vivo at 25 mg/kg turned out to be 24%. Also, the inhibition in the test listed under Canis lupus familiaris was found to be 34%. Moreover, the inhibition at 100 µM in [2] came out at 46%.
In the case of `COc1cc2c(cc1OC)C(c1ccccc1)=NCC2` [listing 2 of 2 here], the inhibition in the test filed under Canis lupus familiaris is 97% and 91%.
With `Cc1ccc2c(c1)C(c1ccccc1)NCC2` (stereo unspecified), the inhibition in vivo at 25 mg/kg with Rattus norvegicus [1] was 51%; in the test with Rattus norvegicus [5], 17%. Moreover, the inhibition in the test filed under Canis lupus familiaris is 4%. In addition, the inhibition at 100 µM in test [2] worked out at 0%.
Consider `COc1cc2c(cc1OCc1ccccc1)C(c1ccccc1)=NCC2`, for which the inhibition in vivo at 25 mg/kg with Rattus norvegicus [1] was 36%. Moreover, the inhibition in the test filed under Canis lupus familiaris turned out to be 95%. In addition, the inhibition at 100 µM in test [2] amounted to 18%.
Taken in the same sequence, the figures for `COc1cc2c(cc1OC)C(Cc1cc(OC)c(OCc3ccccc3)cc1Br)NCC2` (racemic) were 0%, 45% and 27%.
As to `Cc1ccc2c(c1)C(c1ccccc1)=NCC2`, in the test on Rattus norvegicus [1], the inhibition in vivo at 25 mg/kg is 23%. Moreover, the inhibition in the test listed under Canis lupus familiaris is 53%. Also, the inhibition at 100 µM in [2] was found to be 6%.
For the compound `COc1cc2c(cc1OC)C(C1CCCCC1)NCC2` (stereo unspecified), the figures for the inhibition in vivo at 25 mg/kg with Rattus norvegicus [1] and in the test on Rattus norvegicus [5] were 49% and 8%, respectively. Further, the inhibition in the test filed under Canis lupus familiaris was found to be 19%. Further, the inhibition at 100 µM in test [2] worked out at 66%.
Turning to `COc1cc2c(cc1OC)C(c1cccc(C(F)(F)F)c1)NCC2` (stereo unspecified), in the test on Rattus norvegicus [1], the inhibition in vivo at 25 mg/kg was determined as 29%. For the same compound, the inhibition in the test filed under Canis lupus familiaris is 84%. The inhibition at 100 µM in test [2] is 55%.
In the case of `Clc1ccc2c(c1)C(c1ccccc1)=NCC2`, the inhibition in vivo at 25 mg/kg with Rattus norvegicus [1] is 34%. In the test listed under Canis lupus familiaris, the inhibition is 44%. In test [2], the inhibition at 100 µM stood at 0%.
For the compound `COc1cc2c(cc1OC)C(c1nccc3cc(OC)c(OC)cc13)OC2=O` (stereo unspecified), the inhibition in vivo at 25 mg/kg in the test with Rattus norvegicus [1] turned out to be 16%. In the test filed under Canis lupus familiaris, the inhibition was 33%.
As for `c1ccc(C2NCCc3ccccc32)cc1` (stereo unspecified), in the test on Rattus norvegicus [1], the inhibition in vivo at 25 mg/kg worked out at 17%. In the test listed under Canis lupus familiaris, the inhibition came to 7%. Further, the inhibition at 100 µM in test [2] turned out to be 46%.
Take `CI.COc1cc2c(cc1OC)C(c1ccccc1)=NCC2`: the inhibition in vivo at 25 mg/kg in the test on Rattus norvegicus [1] amounted to 22%. The “inhibition (INH)” value in test [2] came to 63%.
Turning to `COc1cc2c(cc1O)C(c1ccccc1)NCC2` (stereo unspecified), the figures for the inhibition in vivo at 25 mg/kg in the test on Rattus norvegicus [1] and in the test on Rattus norvegicus [5] were 43% and 6%, respectively. In addition, in the test filed under Canis lupus familiaris, the inhibition was 19%. Besides, the inhibition at 100 µM in test [2] stood at 25%.
For the compound `COc1cc2c(cc1OC)C1C(=O)Cc3ccccc3CN1CC2` (stereo unspecified), the inhibition in vivo at 25 mg/kg in the test on Rattus norvegicus [1] turned out to be 18%. Further, the inhibition in the test filed under Canis lupus familiaris came out at 64%. Besides, in test [2], the inhibition at 100 µM came out at 43%.
As for `Cn1c(=O)c2nc[nH]c2n(C)c1=O` [THEOPHYLLINE], in [8], the inhibition at 1500 µM was determined as 50%.

Values taken from ChEMBL document CHEMBL3244223, “Drug-induced modifications of the immune response. 1. Substituted 1-phenylisoquinolines” (1979).
